One block for each substance: values may come before it.
Tests used:
Type in all cases: physicochemical
[1] = Decomposition of compound by X-ray irradiation, residual ratio by HPLC (Examples 5 to 8); conditions: 0.5 μM compound in 0.1-M phosphoric acid buffer pH 7.0, bubbled with Ar, X-rays 6 MeV, 20 Gy, 4.4 Gy/min
Method: HPLC System: HPLC system (produced by Shimadzu Corporation) equipped with a reverse-phase column Inertsil ODS-3 (10 mm×250 mm) (produced by GL Sciences).
Eluent A: 0.1-M triethylamine acetic acid buffer solution
This buffer solution was used as an X-ray irradiation solution for the compound.
The X-ray irradiation solution for the compound was bubbled with Ar and then irradiated with X-rays at 6 MeV (20 Gy, 4.4 Gy/min) using LINAC (linear accelerator).
The peak area ratio was calculated on the basis of the areas of absorption peaks of the compound and methylene blue. The ratio between the concentrations of methylene blue and the compound was determined using the calibration curve. The concentration of the compound was calculated using the known concentration of the methylene blue. Thus, the residual ratio (Post/Pre (%)) of the compound was determined.
Note that, the smaller the residual ratio (Post/Pre (%)), the higher the degree of progress of the decomposition (selectively decomposition of chemical bonds; dissociation of axial ligands) by X-rays.

[2] = Impact of radical species on decomposition of the compound by X-ray irradiation (residual ratio by HPLC); conditions: 6 MeV
Method: Sodium formate was added to a 5-μM aqueous solution of the compound 2 as a radical scavenger. While degassing was performed using Ar, the resulting mixture was irradiated with X-rays (6 MeV) using LINAC such that the amount of X-rays absorbed was 2, 3, 4, or 5 Gy. Immediately after the irradiation, the degassing was stopped and the sample irradiated with X-rays was analyzed using HPLC as in Example 5 to calculate the residual ratios of the compound 2 under the above irradiation conditions. Note that, when the amount of X-rays emitted was 5 Gy, the amount of e^−aq (hydrated electrons) produced was 1.6 μM and the amount of CO2^−·(carbon dioxide anion radicals) produced was 1.6 μM. The irradiation and calculation of the residual ratio were conducted three times for each case, and the average was considered as the residual ratio (Post/Pre (%)) of the compound 2.
The residual ratio (Post/Pre (%)) of the compound 2 was calculated as in Reference Example 3, except that the degassing was stopped after the Ar degassing had been maintained 30 minutes subsequent to the X-ray irradiation.
The residual ratio (Post/Pre (%)) of the compound 2 was calculated as in Reference Example 3, except that, instead of sodium formate, sodium formate and nitrous oxide were used as a radical scavenger. Note that, when the amount of X-rays emitted was 5 Gy, the amount of e^−aq (hydrated electrons) produced was 0 μM and the amount of CO2^−·(carbon dioxide anion radicals) produced was 3.1 μM.
The residual ratio (Post/Pre (%)) of the compound 2 was calculated as in Reference Example 5, except that the degassing was stopped after the Ar degassing had been maintained 30 minutes subsequent to the X-ray irradiation.
The residual ratio (Post/Pre (%)) of the compound 2 was calculated as in Reference Example 3, except that the radical scavenger was not used.
The results obtained in Reference Example 3 to 6 confirm that, even in the case where the amount of X-ray (6 MeV) emitted is 10 Gy or less, that is, for example, 2 to 5 Gy, the selective decomposition of the chemical bonds of the compound 2 (dissociation of axial ligands) occurs due to the action of e^−aq (hydrated electrons) and/or CO2^−·(carbon dioxide anion radicals). It was also confirmed that continuing the Ar degassing subsequent to the irradiation enables the selective decomposition of the chemical bonds of the compound 2 to occur.
On the basis of the results obtained in Reference Examples 3 to 6, it is also considered that e^−aq (hydrated electrons) and/or CO2^−·(carbon dioxide anion radicals) contribute to the dissociation of the axial ligands of the compound 2. Since the residual ratio of the compound 2 decreased in the cases where the degassing was maintained, it is also considered that maintaining the degassing causes a radical chain reaction responsible for the dissociation of the axial ligands.

[3] = Impact of pH on decomposition of the compound by X-ray irradiation (residual ratio by HPLC); conditions: X-rays 6 MeV, 20 Gy absorbed, average of three
Method: In a phosphoric acid buffer solution having a pH of 6 or 7, 5 μM of the compound 2 was dissolved. While degassing was performed using Ar, the resulting mixture was irradiated with X-rays (6 MeV) using LINAC such that the amount of X-rays absorbed was 20 Gy. The sample irradiated with X-rays was analyzed using HPLC as in Example 5 to calculate the residual ratios of the compound 2 at the above pH values. The above calculation was conducted three times for each case, and the average was considered as the residual ratio (Post/Pre (%)) of the compound 2.
In Reference Example 2 where the compound 2 was dissolved in a phosphoric acid buffer solution having a pH of 7, the residual ratio (Post/Pre (%)) at which the compound 2 remained after the X-ray irradiation was 50.0%.
This confirms that, the lower the pH, the higher the likelihood of dissociation of the axial ligands.

Substance: Bis({6-[Tris(3-Sulfopropyl)]Ammoniohexanoyl} Oxide) Silicon Phthalocyanine [Compound 3]
Post/pre (%) residual ratio of the compound after X-ray irradiation [1]: 62.1%

Post/pre (%) residual ratio of the compound after X-ray irradiation [1]: 52.5%
Substance: Bis{3-[Tris(3-Sulfopropyl)]Ammoniopropyldimethylsilyl Oxide} Silicon Phthalocyanine [Compound 1]

Post/pre (%) residual ratio of the compound after X-ray irradiation [1]: 46.8%
residual ratio (Post/Pre (%)) ([2]; Reference example 3: 5 μM aqueous, sodium formate, Ar degassing stopped immediately after irradiation, 2 Gy absorbed): 98.4%
residual ratio (Post/Pre (%)) ([2]; Reference example 3: 5 μM aqueous, sodium formate, Ar degassing stopped immediately after irradiation, 3 Gy absorbed): 93.3%
residual ratio (Post/Pre (%)) ([2]; Reference example 3: 5 μM aqueous, sodium formate, Ar degassing stopped immediately after irradiation, 4 Gy absorbed): 89.5%
residual ratio (Post/Pre (%)) ([2]; Reference example 3: 5 μM aqueous, sodium formate, Ar degassing stopped immediately after irradiation, 5 Gy absorbed): 8.8%
residual ratio (Post/Pre (%)) ([2]; Reference example 4: sodium formate, Ar degassing maintained 30 minutes after irradiation, 2 Gy absorbed): 100%
residual ratio (Post/Pre (%)) ([2]; Reference example 4: sodium formate, Ar degassing maintained 30 minutes after irradiation, 3 Gy absorbed): 49.9%
residual ratio (Post/Pre (%)) ([2]; Reference example 4: sodium formate, Ar degassing maintained 30 minutes after irradiation, 4 Gy absorbed): 0.3%
residual ratio (Post/Pre (%)) ([2]; Reference example 4: sodium formate, Ar degassing maintained 30 minutes after irradiation, 5 Gy absorbed): 0%
residual ratio (Post/Pre (%)) ([2]; Reference example 5: sodium formate and nitrous oxide, degassing stopped immediately after irradiation, 2 Gy absorbed): 96.0%
residual ratio (Post/Pre (%)) ([2]; Reference example 5: sodium formate and nitrous oxide, degassing stopped immediately after irradiation, 3 Gy absorbed): 90.4%
residual ratio (Post/Pre (%)) ([2]; Reference example 5: sodium formate and nitrous oxide, degassing stopped immediately after irradiation, 4 Gy absorbed): 86.2%
residual ratio (Post/Pre (%)) ([2]; Reference example 5: sodium formate and nitrous oxide, degassing stopped immediately after irradiation, 5 Gy absorbed): 8.3%
residual ratio (Post/Pre (%)) ([2]; Reference example 6: sodium formate and nitrous oxide, Ar degassing maintained 30 minutes after irradiation, 2 Gy absorbed): 93.1%
residual ratio (Post/Pre (%)) ([2]; Reference example 6: sodium formate and nitrous oxide, Ar degassing maintained 30 minutes after irradiation, 3 Gy absorbed): 85.4%
residual ratio (Post/Pre (%)) ([2]; Reference example 6: sodium formate and nitrous oxide, Ar degassing maintained 30 minutes after irradiation, 4 Gy absorbed): 36.1%
residual ratio (Post/Pre (%)) ([2]; Reference example 6: sodium formate and nitrous oxide, Ar degassing maintained 30 minutes after irradiation, 5 Gy absorbed): 4.8%
residual ratio (Post/Pre (%)) ([2]; Reference example 7: no radical scavenger, Ar degassing, 2 Gy absorbed): 100%
residual ratio (Post/Pre (%)) ([2]; Reference example 7: no radical scavenger, Ar degassing, 3 Gy absorbed): 99.4%
residual ratio (Post/Pre (%)) ([2]; Reference example 7: no radical scavenger, Ar degassing, 4 Gy absorbed): 99.4%
residual ratio (Post/Pre (%)) ([2]; Reference example 7: no radical scavenger, Ar degassing, 5 Gy absorbed): 100%
residual ratio (Post/Pre (%)) after X-ray irradiation ([3]; 5 μM in phosphoric acid buffer pH 6, Ar degassing): 18.6%
residual ratio (Post/Pre (%)) after X-ray irradiation ([3]; 5 μM in phosphoric acid buffer pH 7, Ar degassing): 50.0%
Substance: Bis{4-[Tris(3-Sulfopropyl)]Ammoniobutyloxide} Silicon Phthalocyanine [Compound 2]

Post/pre (%) residual ratio of the compound after X-ray irradiation [1]: 74.8%
Substance: Bis{4-[Tris(3-Sulfopropyl)]Ammoniomethylphenoxide} Silicon Phthalocyanine [Compound 4]

— US20230218761A1, “METHOD FOR DECOMPOSING COMPOUND AND COMPOUND” (NATIONAL UNIVERSITY CORPORATION HOKKAIDO UNIVERSITY, priority 2020, published 2023)
